target: T1, human GPR119 (Homo sapiens, UniProt Q8TDV5); test: AlphaScreen cAMP assay in Min-6/hGPR119 cells (activation of GPR119, intracellular cAMP); assay type: cell-based; settings: MIN6 cells stably transfected with human GPR119; cAMP by AlphaScreen after 45 minutes incubation at room temperature
T1 construct: expression vector for human GPR119 cDNA (Acc. No. NP_848566); expressed in transfected cells
T1 sequence (Q8TDV5 1-335): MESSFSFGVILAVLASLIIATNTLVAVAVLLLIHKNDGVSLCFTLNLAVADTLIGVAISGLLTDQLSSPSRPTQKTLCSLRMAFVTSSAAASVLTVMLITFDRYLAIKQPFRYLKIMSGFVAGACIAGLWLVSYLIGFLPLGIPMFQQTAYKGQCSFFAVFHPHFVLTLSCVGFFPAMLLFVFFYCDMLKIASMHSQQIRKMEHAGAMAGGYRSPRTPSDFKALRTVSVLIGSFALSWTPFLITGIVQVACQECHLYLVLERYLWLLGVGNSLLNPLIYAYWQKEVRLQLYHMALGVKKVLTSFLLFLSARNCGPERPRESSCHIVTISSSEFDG
Procedure: The compounds of formula I according to the invention modulate the activity of the G-protein-coupled receptor GPR119. The effect of the compounds on the activation of GPR119 and on the stimulation of intracellular cAMP concentration is determined using the AlphaScreen cAMP Assay Kit (Cat.No.#6760625R) made by PerkinElmer.
MIN6 cells [Miyazaki J et al. Endocrinology. 1990 July; 127(1):126-32] are stably transfected with an expression vector for human GPR119 cDNA (Acc. No. NP_848566). Min-6/hGPR119 cells are cultured in DMEM, 10% FBS, 50 μM β-mercaptoethanol, 0.3 mg/mL Geniticin, 2 mM GlutaMAX at 37° C. 5% CO2. For the assay, the cells are seeded in Optiplates (white, 384-well, 160W— barcoded, TC, sterile with lid, Cat.No.#6007688 (Perkin Elmer); 10000 cells/well; 50 μl). The plates covered with lids are then incubated for 24 hours at 37° C./5% CO2. After the medium is aspirated from the wells completely, 10 μl of the test compound are added, the compounds are diluted using stimulating buffer (140 mM NaCl, 3.6 mM KCl, 0.5 mM NaH2PO4, 0.5 mM MgSO4, 1.5 mM CaCl2, 10 mM Hepes, 5 mM NaHCO3; pH 7.4. 0.5 mM IBMX and 0.1% BSA, the final DMSO concentration is 1%). After 45 minutes incubation at room temperature (approx. 20° C.), the cAMP concentrations are determined using the AlphaScreen cAMP Assay Kit (Cat.No.#6760625R from PerkinElmer).

Row | Structure (SMILES) | EC50 [µM]
1 | CC(C)(C)OC(=O)N1CCC(C2Cc3cc(-c4ccnc(C(F)(F)F)c4)ncc3O2)CC1 (centres unmarked) [Example 56, 4-[5-(2-Trifluoromethyl-pyridin-4-yl)-2,3-dihydro-furo[2,3-c]pyridin-2-yl]-piperidine-1-carboxylic acid tert-butyl ester] | 0.222
2 | Cn1cc(-c2cc3c(cn2)OC(C2CCN(C(=O)OC(C)(C)C)CC2)C3)ccc1=O (centres unmarked) [Example 58, 4-[5-(1-Methyl-6-oxo-1,6-dihydro-pyridin-3-yl)-2,3-dihydro-furo[2,3-c]pyridin-2-yl]-piperidine-1-carboxylic acid tert-butyl ester] | 0.133
3 | CC(C)(C)OC(=O)N1CCC(C2Cc3cc(-n4ccncc4=O)ncc3O2)CC1 (centres unmarked) [Example 60, 4-[5-(2-Oxo-2H-pyrazin-1-yl)-2,3-dihydro-furo[2,3-c]pyridin-2-yl]-piperidine-1-carboxylic acid tert-butyl ester] | 0.522
4 | CS(=O)(=O)Cc1ccc(-c2cc3c(cn2)OC(C2CCN(C(=O)OC4CCC4)CC2)C3)cc1 (centres unmarked) [Example 61, 4-[5-(4-Methanesulfonylmethyl-phenyl)-2,3-dihydro-furo[2,3-c]pyridin-2-yl]-piperidine-1-carboxylic acid cyclobutyl ester] | 0.031
5 | CC(C)OC(=O)N1CCC(C2Cc3cc(-c4ccc(S(C)(=O)=O)cc4)ncc3O2)CC1 (centres unmarked) [Example 63, 4-[5-(4-Methanesulfonyl-phenyl)-2,3-dihydro-furo[2,3-c]pyridin-2-yl]-piperidine-1-carboxylic acid isopropyl ester] | 0.018
6 | CC(C)S(=O)(=O)c1ccc(-c2cc3c(cn2)OC(C2CCN(C(=O)OC(C)(C)C)CC2)C3)cc1 (centres unmarked) [Example 65, 4-{5-[4-(Propane-2-sulfonyl)-phenyl]-2,3-dihydro-furo[2,3c]pyridin-2-yl}-piperidine-1-carboxylic acid tert-butyl ester] | 0.026
7 | CCS(=O)(=O)c1ccc(-c2cc3c(cn2)OC(C2CCN(C(=O)OC(C)(C)C)CC2)C3)cc1 (centres unmarked) [Example 66, 4-[5-(4-Ethanesulfonyl-phenyl)-2,3-dihydro-furo[2,3-c]pyridin-2-yl]-piperidine-1-carboxylic acid tert-butyl ester] | 0.012
8 | CC(=O)Nc1ccc(-c2cc3c(cn2)OC(C2CCN(C(=O)OC(C)(C)C)CC2)C3)cc1 (centres unmarked) [Example 67, 4-[5-(4-Acetylamino-phenyl)-2,3-dihydro-furo[2,3-c]pyridin-2-yl]-piperidine-1-carboxylic acid tert-butyl ester] | 0.013
9 | Cc1nccn1-c1cc2c(cn1)OC(C1CCN(C(=O)OC(C)(C)C)CC1)C2 (centres unmarked) [Example 70, 4-[5-(2-Methyl-imidazol-1-yl)-2,3-dihydro-furo[2,3-c]pyridin-2-yl]-piperidine-1-carboxylic acid tert-butyl ester] | 0.706
10 | CC(C)(C)OC(=O)N1CCC([C@@H]2Cc3cc(-c4ccc(S(C)(=O)=O)cn4)ccc3O2)CC1 [Example 71, (S)-4-[5-(5-Methanesulfonyl-pyridin-2-yl)-2,3-dihydro-benzofuran-2-yl]-piperidine-1-carboxylic acid tert-butyl ester] | 0.011
11 | CC(C)(C)OC(=O)N1CCC([C@H]2Cc3cc(-c4ccc(S(C)(=O)=O)cn4)ccc3O2)CC1 [Example 72, (R)-4-[5-(5-Methanesulfonyl-pyridin-2-yl)-2,3-dihydro-benzofuran-2-yl]-piperidine-1-carboxylic acid tert-butyl ester] | 0.097
12 | CC(C)(C)OC(=O)N1CCC([C@@H]2Cc3nc(-c4ccc(S(C)(=O)=O)cc4)ncc3O2)CC1 [Example 73, (S)-4-[2-(4-Methanesulfonyl-phenyl)-6,7-dihydro-furo[3,2-d]pyrimidin-6-yl]-piperidine-1-carboxylic acid tert-butyl ester] | 0.027
13 | CC(C)(C)OC(=O)N1CCC([C@H]2Cc3nc(-c4ccc(S(C)(=O)=O)cc4)ncc3O2)CC1 [Example 74, (R)-4-[2-(4-Methanesulfonyl-phenyl)-6,7-dihydro-furo[3,2-d]pyrimidin-6-yl]-piperidine-1-carboxylic acid tert-butyl ester] | 0.218
14 | CC(C)(C)OC(=O)N1CCC(C2(C)Cc3cc(C4=CCN(S(C)(=O)=O)CC4)ncc3O2)CC1 (centres unmarked) [Example 78, 4-[5-(1-Methanesulfonyl-1,2,3,6-tetrahydro-pyridin-4-yl)-2-methyl-2,3-dihydro-furo[2,3-c]pyridin-2-yl]-piperidine-1-carboxylic acid tert-butyl ester] | 0.015
15 | CC(C)(C)OC(=O)N1CCC(C2(C)Cc3cc(N4CCN(S(C)(=O)=O)CC4)ncc3O2)CC1 (centres unmarked) [Example 79, 4-[5-(4-Methanesulfonyl-piperazin-1-yl)-2-methyl-2,3-dihydro-furo[2,3-c]pyridin-2-yl]-piperidine-1-carboxylic acid tert-butyl ester] | 0.04
16 | CC(C)(C)OC(=O)N1CCC(C2(C)Cc3cc(-c4ccc(CS(C)(=O)=O)cc4)ncc3O2)CC1 (centres unmarked) [Example 80, 4-[5-(4-Methanesulfonylmethyl-phenyl)-2-methyl-2,3-dihydro-furo[2,3-c]pyridin-2-yl]-piperidine-1-carboxylic acid tert-butyl ester] | 0.024

Next, values leading:

Row | EC50 [µM] | Structure (SMILES)
17 | 0.685 | Cn1ccc(-c2cc3c(cn2)OC(C2CCN(C(=O)OC(C)(C)C)CC2)C3)cc1=O (centres unmarked) [Example 57, 4-[5-(1-Methyl-2-oxo-1,2-dihydro-pyridin-4-yl)-2,3-dihydro-furo[2,3-c]pyridin-2-yl]-piperidine-1-carboxylic acid tert-butyl ester]
18 | 0.119 | CC(C)(C)OC(=O)N1CCC(C2Cc3cc(-c4ccncc4C#N)ncc3O2)CC1 (centres unmarked) [Example 59, 4-[5-(3-Cyano-pyridin-4-yl)-2,3-dihydro-furo[2,3-c]pyridin-2-yl]-piperidine-1-carboxylic acid tert-butyl ester]
19 | 0.036 | CC(C)OC(=O)N1CCC(C2Cc3cc(-c4ccc(CS(C)(=O)=O)cc4)ncc3O2)CC1 (centres unmarked) [Example 62, 4-[5-(4-Methanesulfonylmethyl-phenyl)-2,3-dihydro-furo[2,3-c]pyridin-2-yl]-piperidine-1-carboxylic acid isopropyl ester]
20 | 0.051 | CC1(OC(=O)N2CCC(C3Cc4cc(-c5ccc(CS(C)(=O)=O)cc5)ncc4O3)CC2)CC1 (centres unmarked) [Example 64, 4-[5-(4-Methanesulfonylmethyl-phenyl)-2,3-dihydro-furo[2,3-c]pyridin-2-yl]-piperidine-1-carboxylic acid 1-methyl-cyclopropyl ester]
21 | 0.575 | Cn1cc(-c2cc3c(cn2)OC(C2CCN(C(=O)OC(C)(C)C)CC2)C3)cn1 (centres unmarked) [Example 68, 4-[5-(1-Methyl-1H-pyrazol-4-yl)-2,3-dihydro-furo[2,3-c]pyridin-2-yl]-piperidine-1-carboxylic acid tert-butyl ester]
22 | 0.162 | CC(C)(C)OC(=O)N1CCC(C2Cc3cc(-n4ccnc4)ncc3O2)CC1 (centres unmarked) [Example 69, 4-(5-Imidazol-1-yl-2,3-dihydro-furo[2,3-c]pyridin-2-yl)-piperidine-1-carboxylic acid tert-butyl ester]
23 | 0.014 | CC(C)(C)OC(=O)N1CCC(C2(C)Cc3cc(-c4ccc(S(C)(=O)=O)cc4)ncc3O2)CC1 (centres unmarked) [Example 77, 4-[5-(4-Methanesulfonyl-phenyl)-2-methyl-2,3-dihydro-furo[2,3-c]pyridin-2-yl]-piperidine-1-carboxylic acid tert-butyl ester]

— US8669271B2 (Boehringer Ingelheim International GmbH, priority 2010, dated 2014)
